# Entries after “also recorded” stand apart in the source; their conditions may differ. Like-named read-outs stand apart in the source and are kept apart here. Ends that are not written are not given here.
# B1: SOD12-22602: STAMP, SEQ ID NO: 22; SOD12, GGSGGS linker, binder 22602 (peptide)
# chain: RICESASYRFKGICVSRSNCANVCKNEGFPGGRCRGFRRRCLCYKHCGGGSGGSMGINGFKFLSDIHHFCS
# B2: SOD12-57020: STAMP, SEQ ID NO: 24; SOD12, GGSGGS linker, binder 57020 (peptide)
# chain: RICESASYRFKGICVSRSNCANVCKNEGFPGGRCRGFRRRCLCYKHCGGGSGGSSRNSSIALGLRRAYAVFNYFVARGI
# B3: 22602-SoD2*: STAMP, SEQ ID NO: 25; binder 22602, GGSGGS linker, SOD2* (peptide)
# chain: MGINGFKFLSDIHHFCSGGSGGSGIFSSRKCKTPSKTFKGICTRDSNCDTSCRYEGYPAGDCKGIRRRCLCCTHT
# B4: 57020-SOD12: STAMP, SEQ ID NO: 23; binder 57020, GGSGGS linker, SOD12 (peptide)
# chain: SRNSSIALGLRRAYAVFNYFVARGIGGSGGSRICESASYRFKGICVSRSNCANVCKNEGFPGGRCRGFRRRCLCYKHCG
# B5: 57020-SoD2*: STAMP, SEQ ID NO: 27; binder 57020, GGSGGS linker, SOD2* (peptide)
# chain: SRNSSIALGLRRAYAVFNYFVARGIGGSGGSGIFSSRKCKTPSKTFKGICTRDSNCDTSCRYEGYPAGDCKGIRRRCLCCTHT
# B6: 22602-SOD12: STAMP, SEQ ID NO: 21; binder 22602, GGSGGS linker, SOD12 (peptide)
# chain: MGINGFKFLSDIHHFCSGGSGGSRICESASYRFKGICVSRSNCANVCKNEGFPGGRCRGFRRRCLCYKHCG
# Columns and labels:
# CLas BamA protein = CLas BamA protein (Candidatus Liberibacter asiaticus, UniProt Q32TE9); type: binding; settings: for Kd: read-out: KD, affinity constant
# [1] = molecular target: CLas BamA protein (Candidatus Liberibacter asiaticus); test: BLI (BLItz), […], global fit, triplicate
# [2] = system: putative CLas cells in bacterial extracts from HLB-affected trees; type: binding, Candidatus Liberibacter asiaticus
# L. crescens [3] = type: binding, Liberibacter crescens
# R. galegae [4] = test: FITC-labeled peptide binding assay, fluorescence microscopy; design: species or system Rhizobium galegae
# R. grahamii [5] = type: binding, Rhizobium grahamii
# E. coli = test: FITC-labeled peptide binding assay, fluorescence microscopy; design: species or system Escherichia coli
# [6] = system: cells in healthy citrus tree extracts; type: binding
# CLas [7] = type: cell-based, Candidatus Liberibacter asiaticus; settings: 72 hours; 25, 50, 100 μg/ml
# CLas [8] = type: in vivo, Candidatus Liberibacter asiaticus; settings: for Reduction in CLas titers compared to SOD2* or SOD12 alone: roots of 4 months old composite plants stably expressing the STAMP
# L. crescens [9] = system: L. crescens
# R. grahamii [10] = type: cell-based, Rhizobium grahamii; settings: 10, 25, 50, 100 μg/ml
# R. galegae [11] = type: cell-based, Rhizobium galegae; settings: N- or C-terminus orientation
# [12] = BLI, pH 6.5 Tris buffer, mean ± SD
# [13] = binders 16 μM, bacterial extracts from HLB-affected citrus trees
# [14] = binders 16 μM, unrelated bacterium
# [15] = especially at lower dosages (50 μg/ml)
molecule,measurement,setting,value
"NC(N)=NC(=O)CC(Nc1nc(N=C(N)N)nc(NC2CCC(NC(=O)Cn3nnc(-c4ccc(F)cc4)n3)CC2)n1)C1CC1 (centres unmarked) [MRL-494, reference compound]","Kd, rate of dissociation",CLas BamA protein; [12],0.0813 ± 1 s⁻¹
same,Kd,CLas BamA protein; [12],6970 nM
ACT56869.1_241-255 (peptide),Kd,[1],270 nM
same,koff,[1],0.0117 s⁻¹
same,kon,[1],49600 M⁻¹ s⁻¹
ACT56973.1_80-96 (peptide),Kd,[1],248 nM
same,koff,[1],0.211 s⁻¹
same,kon,[1],852000 M⁻¹ s⁻¹
ACT57020.1_94-118 (peptide),Kd,[1],209 nM
same,koff,[1],0.0032 s⁻¹
same,kon,[1],15900 M⁻¹ s⁻¹
DLHPQFQNLLKKSQN [ACT56869.1_241-255],"Ka, rate of association",CLas BamA protein; [12],49610 ± 1 M⁻¹ s⁻¹
same,"Kd, rate of dissociation",CLas BamA protein; [12],0.01167 ± 1 s⁻¹
same,Kd,CLas BamA protein; [12],270 nM
"MGINGFKFLSDIHHFCS [compound 22602, MGINGFKFLSDIHHFCS]",Binding of FITC-labeled binder to CLas cells,[2],consistent binding; also recorded: bound
same,Binding of FITC-labeled binder to L. crescens,L. crescens [3],consistent binding; also recorded: bound
same,Binding of FITC-labeled binder to R. galegae,R. galegae [4],consistent binding; also recorded: bound
same,Binding of FITC-labeled binder to R. grahamii,R. grahamii [5],consistent binding; also recorded: bound
same,Binding of FITC-labeled binder to E. coli,E. coli,not to E. coli
same,Binding of FITC-labeled binder to cells in healthy citrus tree extracts,[6],not
QSFYYVSQKKKWFPVKF [ACT56973.1_80-96],"Ka, rate of association",CLas BamA protein; [12],852433 ± 1 M⁻¹ s⁻¹
same,"Kd, rate of dissociation",CLas BamA protein; [12],0.2111 ± 1 s⁻¹
same,Kd,CLas BamA protein; [12],248 nM
RICESASYRFKGICVSRSNCANVCKNEGFPGGRCRGFRRRCLCYKHCG (cysteines drawn unpaired) [SOD12],Anti-CLas activity (relative CLas titers by qPCR),CLas [7],ineffective or moderately effective
same,CLas titers compared to empty vector controls,CLas [8]; in vivo,significantly lowered
same,Mortality of L. crescens at lower dosage,L. crescens [9],ineffective
same,Mortality rate of L. crescens,L. crescens [9],65-85%
SRNSSIALGLRRAYAVFNYFVARGI [compound 57020],Binding of FITC-labeled binder to CLas cells,[2],consistent binding; also recorded: bound
same,Binding of FITC-labeled binder to L. crescens,L. crescens [3],consistent binding; also recorded: bound
same,Binding of FITC-labeled binder to R. galegae,R. galegae [4],consistent binding; also recorded: bound
same,Binding of FITC-labeled binder to R. grahamii,R. grahamii [5],consistent binding; also recorded: bound
same,Binding of FITC-labeled binder to E. coli,E. coli,not to E. coli
same,Binding of FITC-labeled binder to cells in healthy citrus tree extracts,[6],not
same,"In vitro growth inhibition of R. grahamii, efficacy compared to SOD12 alone",R. grahamii [10],significantly greater efficacy
same,"Ka, rate of association",CLas BamA protein; pH 6.5,15857 ± 1 M⁻¹ s⁻¹
same,"Kd, rate of dissociation",CLas BamA protein; pH 6.5,0.0032 ± 1 s⁻¹
same,Kd,CLas BamA protein; pH 6.5,209 nM
WHVTFY [#11],Binding of FITC-labeled binder to CLas cells,[2]; [13],bound
same,Binding of FITC-labeled binder to L. crescens,L. crescens [3]; binders 16 μM,bound
same,Binding of FITC-labeled binder to R. galegae,R. galegae [4]; binders 16 μM,bound
same,Binding of FITC-labeled binder to R. grahamii,R. grahamii [5]; binders 16 μM,bound
same,Binding of FITC-labeled binder to E. coli,E. coli; [14],not to E. coli
same,Binding of FITC-labeled binder to cells in healthy citrus tree extracts,[6]; binders 16 μM,not
WHVTYF [#12],Binding of FITC-labeled binder to CLas cells,[2]; [13],bound
same,Binding of FITC-labeled binder to L. crescens,L. crescens [3]; binders 16 μM,bound
same,Binding of FITC-labeled binder to R. galegae,R. galegae [4]; binders 16 μM,bound
same,Binding of FITC-labeled binder to R. grahamii,R. grahamii [5]; binders 16 μM,bound
same,Binding of FITC-labeled binder to E. coli,E. coli; [14],not to E. coli
same,Binding of FITC-labeled binder to cells in healthy citrus tree extracts,[6]; binders 16 μM,not
B1,Efficacy in R. galegae compared with 22602-SOD12 and SOD12-57020 (binder orientation),R. galegae [11],lower efficacy
B2,"In vitro growth inhibition of R. grahamii, efficacy compared to SOD12 alone",R. grahamii [10]; [15],significantly greater efficacy
B3,Reduction in CLas titers compared to SOD2* or SOD12 alone,CLas [8],even greater reduction in CLas titers
B4,Efficacy in R. galegae compared with 22602-SOD12 and SOD12-57020 (binder orientation),R. galegae [11],lower efficacy
same,"In vitro growth inhibition of R. grahamii, efficacy compared to SOD12 alone",R. grahamii [10]; [15],significantly greater efficacy
B5,Reduction in CLas titers compared to SOD2* or SOD12 alone,CLas [8],even greater reduction in CLas titers
B6,Reduction in CLas titers compared to SOD2* or SOD12 alone,CLas [8],even greater reduction in CLas titers
